Series [1] in a line: In vitro metabolic stability, human liver microsomes. It counts as in vitro ADME. To be noted: for Predicted CLblood: well stirred model. As to the method: Human Microsomal Stability of Compounds of the Invention
In Vitro Metabolic Stability
Incubation: The metabolic stability assay was performed by incubating each test compound in human liver microsomes at 37° C. and a protein concentration of 0.4 mg/mL. The metabolic reaction was initiated by the addition of an NADPH-regenerating system and quenched at various time points over a 60 minute incubation period by the addition of acetonitrile containing diazepam as internal standard. Control samples (containing no NADPH) were included (and quenched at 2, 30 and 60 minutes) to monitor for potential degradation in the absence of cofactor. The human liver microsomes used in this experiment were supplied by XenoTech, lot #1410230. Microsomal incubations were performed at a substrate concentration of 1 μM. Data analysis: Species scaling factors from Ring et al. (2011) JPharmSci, 100:4090-4110 were used to convert the in vitro CLint (μL/min/mg) to an in vivo CLint(mL/min/kg). Hepatic blood clearance and the corresponding hepatic extraction ratio (EH) were calculated using the well stirred model of hepatic extraction in each species, according to the “in vitro T1/2” approach described in Obach (1999) DrugMetab. Dispos. 27:1350-1359. The EH was then used to classify compounds as low(<0.3), intermediate (0.3-0.7), high (0.7-0.95) or very high (>0.95) extraction compounds. Predicted in vivo clearance values have not been corrected for microsomal or plasma protein binding. Species scaling calculations are based on two assumptions: 1) NADPH-dependent oxidative metabolism predominates over other metabolic routes (i.e. direct conjugative metabolism, reduction, hydrolysis, etc.), and; 2) rates of metabolism and enzyme activities in vitro are truly reflective of those that exist in vivo. If significant non-NADPH-mediated degradation is observed in microsome control samples, then assumption (1) is invalid and predicted clearance parameters are therefore not reported.

Series [2] is classed as in vitro ADME, mouse. The protocol: Incubation: The metabolic stability assay was performed by incubating each test compound in human liver microsomes at 37° C. and a protein concentration of 0.4 mg/mL. The metabolic reaction was initiated by the addition of an NADPH-regenerating system and quenched at various time points over a 60 minute incubation period by the addition of acetonitrile containing diazepam as internal standard. Control samples (containing no NADPH) were included (and quenched at 2, 30 and 60 minutes) to monitor for potential degradation in the absence of cofactor. The human liver microsomes used in this experiment were supplied by XenoTech, lot #1410230. Microsomal incubations were performed at a substrate concentration of 1 μM. Data analysis: Species scaling factors from Ring et al. (2011) JPharmSci, 100:4090-4110 were used to convert the in vitro CLint (μL/min/mg) to an in vivo CLint(mL/min/kg). Hepatic blood clearance and the corresponding hepatic extraction ratio (EH) were calculated using the well stirred model of hepatic extraction in each species, according to the “in vitro T1/2” approach described in Obach (1999) DrugMetab. Dispos. 27:1350-1359. The EH was then used to classify compounds as low(<0.3), intermediate (0.3-0.7), high (0.7-0.95) or very high (>0.95) extraction compounds. Predicted in vivo clearance values have not been corrected for microsomal or plasma protein binding. Species scaling calculations are based on two assumptions: 1) NADPH-dependent oxidative metabolism predominates over other metabolic routes (i.e. direct conjugative metabolism, reduction, hydrolysis, etc.), and; 2) rates of metabolism and enzyme activities in vitro are truly reflective of those that exist in vivo. […] [table]

Series [3] concerns the target T1, human recombinant Casein kinase 18 (CK1δ) (Homo sapiens, UniProt P48730).
T1 construct: purchased Reaction Biology Corp
Briefly: Kinase inhibition assay (HotSpot, Reaction Biology Corp), CK1δ. The conditions noted are these: 10 μM ATP, 10-dose IC50 mode; read-out: Compound IC50 (M) CK1δ. It counts as biochemical.

Series [4] concerns the target T2, MINK/MINK1 (Homo sapiens, UniProt Q8N4C8).
T2 construct: purchased Reaction Biology Corp
The series is described as follows: Kinase inhibition assay (HotSpot), MINK/MINK1. It counts as biochemical. To be noted: 10 μM ATP, 10-dose IC50 mode; read-out: Compound IC50 (M) MINK/MINK1.

For series [5], the target named is T3, ERBB4/HER4 (Homo sapiens, UniProt Q15303).
T3 construct: purchased Reaction Biology Corp
The series is described as follows: Kinase inhibition assay (HotSpot), ERBB4/HER4. It counts as biochemical. The conditions noted are these: 10 μM ATP, 10-dose IC50 mode; read-out: Compound IC50 (M) ERBB4/HER4.

The mark [6] stands for this setting: human liver microsomes, 1 μM, 0.4 mg/mL protein, 37° C.
[7] abbreviates: scaled from human liver microsomes.

Read-outs that look alike come from different tables or passages of the source. A value given as a limit tells only on which side of the number the result lay.

The text below walks through data of patent US20220281846A1, “COMPOUNDS AND COMPOSITIONS FOR THE TREATMENT OF RESPIRATORY DISEASES” (THE UNIVERSITY OF MELBOURNE, priority 2018, published 2022).

T3 sequence (Q15303 26-1308): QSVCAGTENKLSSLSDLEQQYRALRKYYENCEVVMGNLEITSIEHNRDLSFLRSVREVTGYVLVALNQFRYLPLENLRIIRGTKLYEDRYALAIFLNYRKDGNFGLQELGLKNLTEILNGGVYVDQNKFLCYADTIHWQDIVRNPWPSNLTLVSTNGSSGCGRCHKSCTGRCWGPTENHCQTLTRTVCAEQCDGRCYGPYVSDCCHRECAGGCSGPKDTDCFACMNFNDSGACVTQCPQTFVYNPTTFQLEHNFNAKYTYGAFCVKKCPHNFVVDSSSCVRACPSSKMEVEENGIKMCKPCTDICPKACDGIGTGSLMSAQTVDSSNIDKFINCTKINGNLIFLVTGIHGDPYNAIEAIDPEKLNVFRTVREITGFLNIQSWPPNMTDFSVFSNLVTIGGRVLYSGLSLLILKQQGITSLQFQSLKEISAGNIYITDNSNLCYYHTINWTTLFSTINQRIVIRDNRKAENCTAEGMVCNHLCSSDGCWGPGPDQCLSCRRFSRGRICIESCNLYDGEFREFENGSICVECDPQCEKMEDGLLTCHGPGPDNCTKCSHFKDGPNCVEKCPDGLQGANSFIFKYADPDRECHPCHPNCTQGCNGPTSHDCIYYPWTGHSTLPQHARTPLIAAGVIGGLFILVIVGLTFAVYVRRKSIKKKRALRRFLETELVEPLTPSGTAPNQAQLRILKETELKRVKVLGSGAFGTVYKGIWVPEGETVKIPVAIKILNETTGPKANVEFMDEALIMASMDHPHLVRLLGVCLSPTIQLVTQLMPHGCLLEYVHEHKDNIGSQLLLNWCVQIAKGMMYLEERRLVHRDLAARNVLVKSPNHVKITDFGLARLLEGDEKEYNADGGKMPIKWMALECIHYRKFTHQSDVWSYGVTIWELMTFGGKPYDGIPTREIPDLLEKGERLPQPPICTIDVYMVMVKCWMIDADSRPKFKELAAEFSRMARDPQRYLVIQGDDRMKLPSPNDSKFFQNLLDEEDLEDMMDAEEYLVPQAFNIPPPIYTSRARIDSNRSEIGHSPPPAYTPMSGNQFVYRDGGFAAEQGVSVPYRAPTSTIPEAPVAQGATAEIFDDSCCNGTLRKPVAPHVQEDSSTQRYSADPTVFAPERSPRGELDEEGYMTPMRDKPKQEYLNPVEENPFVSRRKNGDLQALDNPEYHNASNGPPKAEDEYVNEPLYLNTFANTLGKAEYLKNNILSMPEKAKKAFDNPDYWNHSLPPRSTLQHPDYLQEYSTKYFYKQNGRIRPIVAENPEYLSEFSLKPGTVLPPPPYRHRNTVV
T1 sequence (P48730 whole entry): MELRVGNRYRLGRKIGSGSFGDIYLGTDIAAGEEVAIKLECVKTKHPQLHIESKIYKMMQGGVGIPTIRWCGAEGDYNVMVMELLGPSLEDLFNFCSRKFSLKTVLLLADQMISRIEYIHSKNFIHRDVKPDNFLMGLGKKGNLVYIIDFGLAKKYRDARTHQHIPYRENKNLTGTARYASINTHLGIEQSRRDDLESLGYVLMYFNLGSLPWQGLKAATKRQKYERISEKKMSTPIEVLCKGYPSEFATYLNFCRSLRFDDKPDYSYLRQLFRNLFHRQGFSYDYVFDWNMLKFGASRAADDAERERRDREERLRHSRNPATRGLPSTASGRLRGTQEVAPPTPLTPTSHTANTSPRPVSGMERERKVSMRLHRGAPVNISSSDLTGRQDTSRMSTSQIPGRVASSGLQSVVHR
T2 sequence (Q8N4C8 whole entry): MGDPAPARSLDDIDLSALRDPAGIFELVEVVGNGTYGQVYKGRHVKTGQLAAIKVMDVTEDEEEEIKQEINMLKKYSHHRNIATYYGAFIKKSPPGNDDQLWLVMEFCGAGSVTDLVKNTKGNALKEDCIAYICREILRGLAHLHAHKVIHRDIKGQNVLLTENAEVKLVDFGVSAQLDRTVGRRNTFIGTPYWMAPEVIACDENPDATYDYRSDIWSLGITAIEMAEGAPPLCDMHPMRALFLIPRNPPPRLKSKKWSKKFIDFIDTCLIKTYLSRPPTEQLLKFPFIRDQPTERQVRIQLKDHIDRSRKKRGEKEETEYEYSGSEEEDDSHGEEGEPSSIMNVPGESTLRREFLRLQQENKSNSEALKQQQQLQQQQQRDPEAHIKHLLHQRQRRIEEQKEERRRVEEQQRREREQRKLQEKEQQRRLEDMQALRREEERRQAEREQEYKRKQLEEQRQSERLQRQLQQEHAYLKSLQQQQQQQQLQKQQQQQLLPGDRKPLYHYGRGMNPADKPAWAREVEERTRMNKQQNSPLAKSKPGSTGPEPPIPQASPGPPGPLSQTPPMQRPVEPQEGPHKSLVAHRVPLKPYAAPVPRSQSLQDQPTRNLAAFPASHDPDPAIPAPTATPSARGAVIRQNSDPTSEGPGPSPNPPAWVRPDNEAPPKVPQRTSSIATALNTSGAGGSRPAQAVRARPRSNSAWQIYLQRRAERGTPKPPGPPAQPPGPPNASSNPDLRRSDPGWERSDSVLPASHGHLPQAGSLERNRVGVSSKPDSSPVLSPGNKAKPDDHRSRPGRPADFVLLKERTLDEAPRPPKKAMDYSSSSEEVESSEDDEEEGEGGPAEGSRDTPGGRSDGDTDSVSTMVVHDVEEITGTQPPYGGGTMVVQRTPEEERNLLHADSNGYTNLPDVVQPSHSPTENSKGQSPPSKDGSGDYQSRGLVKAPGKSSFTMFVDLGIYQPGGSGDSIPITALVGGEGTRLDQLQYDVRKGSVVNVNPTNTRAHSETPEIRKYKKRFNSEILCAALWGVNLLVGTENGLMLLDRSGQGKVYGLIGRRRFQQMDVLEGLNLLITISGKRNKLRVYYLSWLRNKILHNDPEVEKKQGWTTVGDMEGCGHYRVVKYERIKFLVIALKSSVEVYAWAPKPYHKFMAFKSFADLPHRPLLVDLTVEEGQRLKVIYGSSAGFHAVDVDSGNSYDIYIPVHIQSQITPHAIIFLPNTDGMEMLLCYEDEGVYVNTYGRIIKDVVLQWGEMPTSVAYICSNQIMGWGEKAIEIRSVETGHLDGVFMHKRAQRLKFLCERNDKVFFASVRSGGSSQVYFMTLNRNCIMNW

With `Nc1nccc(-c2c(-c3ccc(F)cc3)ncn2C2CCCCC2)n1` [PF670462, reference compound], the “Predicted EH (hepatic extraction ratio)” value in series [1] (human liver microsomes) is recorded as 0.88; in series [2] it was 0.90. For the same compound, the “CLint, in vitro” value turned out to be 192 μL/min/mg protein in series [1] (human liver microsomes, 1 μM) and 428 μL/min/mg protein in series [2] (mouse, microsomes). Besides, the T1/2 in series [1] (setting [6]) was determined as 9 min; in series [2] (mouse, microsomes) it was 4 min. Also, the “Predicted CLint, in vivo” value in series [1] (setting [7]) is listed as 158 mL/min/kg; in series [2], 1105 mL/min/kg. For the same compound, the “Predicted CLblood” value in series [1] (setting [7]) was 18 mL/min/kg; in series [2], 108 mL/min/kg.
With `Nc1nccc(-c2c(-c3ccc(F)cc3)ncn2C2CCC(F)(F)CC2)n1` [ZH3-138, 4-(1-(4,4-Difluorocyclohexyl)-4-(4-fluorophenyl)-1H-imidazol-5-yl)pyrimidin-2-amine], the IC50 in series [3] worked out at 9.32e-09 M; in series [4], 1.15e-06 M; in series [5] it was 9.98e-06 M. The “Predicted EH (hepatic extraction ratio)” value in series [1] (human liver microsomes) was <0.22. Besides, the microsomal CLint at 1 μM in series [1] (human liver microsomes, 1 μM) was < 7 µL/min/mg. Also, in series [1] (setting [6]), the half-life at 1 μM was > 255 min. The “Predicted CLblood” value in series [1] (setting [7]) is given as <5 mL/min/kg. For the same compound, in series [1] (scaled from human liver microsomes, read-out: Predicted CLint, in vivo), the CLint scaled at 1 μM was < 6 mL/min/kg.
